Values after ≈ are worked out from the molar mass of the structure shown. Values belong to the molecule of their own block, whether it stands above or below them.
Tests used:
in vitro [1] = conditions: human, THP-1 cells
Description: Selectivity index, ratio of IC50 for human THP1 cells to IC50 for Plasmodium falciparum

Plasmodium falciparum [2] = test: microbe, parasite or virus in culture; conditions: NF54
Description: Antiplasmodial activity against Plasmodium falciparum NF54 by SYBR-green based assay

Plasmodium falciparum [3] = test: microbe, parasite or virus in culture; conditions: K1
Description: Antiplasmodial activity against Plasmodium falciparum K1 by SYBR-green based assay

Plasmodium falciparum [4] = test: microbe, parasite or virus in culture; conditions: SB1-A6
Description: Antiplasmodial activity against Plasmodium falciparum SB1-A6 harboring mutations conferring drug-resistance by SYBR-green based assay

physchem [5] = conditions: buffer, pH 7.4
Description: Lipophilicity, logD of the compound at pH 7.4

physchem [6] = conditions: buffer
Description: Aqueous solubility of the compound

in vivo [7] = conditions: mouse, 30 mg/kg
in vitro [8] = conditions: human, plasma
Description: Unbound fraction in human plasma

Plasmodium berghei [9] = test: animal or person; conditions: in Mus musculus, read-out: INH
Description: Antiplasmodial activity against Plasmodium berghei infected in mouse assessed as reduction in parasitemia at 50 mg/kg treated with four once daily doses

in vitro [10] = conditions: human, microsomes
Description: Clearance in human microsomes

in vivo [11] = conditions: mouse, 30 mg/kg; remark: listed apart in the source
Description: Half life in Plasmodium berghei infected mouse at 30 mg/kg treated with four once daily doses

in vivo [12] = conditions: mouse, plasma, 30 mg/kg
Description: AUClast in Plasmodium berghei infected mouse at 30 mg/kg treated with four once daily doses

in vivo [13] = conditions: rat, po, 5 mg/kg
Description: Half life in rat at 5 mg/kg, po

in vivo [14] = conditions: rat, iv, 1 mg/kg
Description: Half life in rat at 1 mg/kg, iv

in vivo [15] = conditions: mouse, 50 mg/kg
in vivo [16] = conditions: mouse, plasma, 50 mg/kg
Description: AUClast in Plasmodium berghei infected mouse at 50 mg/kg treated with four once daily doses

in vivo [17] = conditions: rat, po, 5 mg/kg; remark: listed apart in the source
in vivo [18] = conditions: mouse, 50 mg/kg; remark: listed apart in the source
Description: Half life in Plasmodium berghei infected mouse at 50 mg/kg treated with four once daily doses

Plasmodium berghei [19] = test: animal or person; conditions: in Mus musculus, read-out: INH; remark: listed apart in the source
Description: Antiplasmodial activity against Plasmodium berghei infected in mouse assessed as reduction in parasitemia at 30 mg/kg treated with four once daily doses

in vivo [20] = conditions: rat, iv, 1 mg/kg; remark: listed apart in the source
Description: Clearance in rat at 1 mg/kg, iv

Plasmodium berghei [21] = conditions: dose 30 mg/kg
Description: Antiplasmodial activity against Plasmodium berghei infected in mouse assessed as increase in mean survival days at 30 mg/kg treated with four once daily doses

in vivo [22] = conditions: rat, po, 5 mg/kg; remark: listed apart in the source
in vivo [23] = conditions: rat, plasma, iv, 1 mg/kg
Plasmodium berghei [24] = conditions: dose 50 mg/kg
Description: Antiplasmodial activity against Plasmodium berghei infected in mouse assessed as increase in mean survival days at 50 mg/kg treated with four once daily doses

in vivo [25] = conditions: rat, iv, 1 mg/kg; remark: listed apart in the source
Description: Volume of distribution at steady state in rat at 1 mg/kg, iv

in vitro [26] = conditions: human, hepatocytes
Description: Clearance in human hepatocytes assessed per million cells

Plasmodium falciparum [27] = test: microbe, parasite or virus in culture; conditions: 7G8
Description: Antiplasmodial activity against Plasmodium falciparum 7G8 harboring mutations conferring drug-resistance by SYBR-green based assay

Plasmodium falciparum [28] = test: microbe, parasite or virus in culture; conditions: W2
Description: Antiplasmodial activity against Plasmodium falciparum W2 harboring mutations conferring drug-resistance by SYBR-green based assay

Plasmodium falciparum [29] = test: microbe, parasite or virus in culture; conditions: Dd2
Description: Antiplasmodial activity against Plasmodium falciparum Dd2 harboring mutations conferring drug-resistance by SYBR-green based assay

[30] = AUClast in Plasmodium berghei infected mouse at 100 mg/kg treated with four once daily doses; format: ADME, organism-based; set-up: time 0 - last, dose 100 mg/kg; conditions: plasma
[31] = Cmax in Plasmodium berghei infected mouse at 100 mg/kg treated with four once daily doses; format: ADME, organism-based; set-up: dose 100 mg/kg; conditions: in vivo
Plasmodium berghei [32] = test: Antiplasmodial activity against Plasmodium berghei infected in mouse assessed as reduction in parasitemia at 100 mg/kg treated with four once daily doses; format: functional
[33] = Half life in Plasmodium berghei infected mouse at 100 mg/kg treated with four once daily doses; format: ADME, organism-based; set-up: dose 100 mg/kg; conditions: in vivo
Plasmodium berghei [34] = test: Antiplasmodial activity against Plasmodium berghei infected in mouse assessed as increase in mean survival days at 100 mg/kg treated with four once daily doses; format: functional
[35] = biological target: Voltage-gated inwardly rectifying potassium channel KCNH2 (Homo sapiens, UniProt Q12809)
Chain of Voltage-gated inwardly rectifying potassium channel KCNH2 (Q12809 whole entry): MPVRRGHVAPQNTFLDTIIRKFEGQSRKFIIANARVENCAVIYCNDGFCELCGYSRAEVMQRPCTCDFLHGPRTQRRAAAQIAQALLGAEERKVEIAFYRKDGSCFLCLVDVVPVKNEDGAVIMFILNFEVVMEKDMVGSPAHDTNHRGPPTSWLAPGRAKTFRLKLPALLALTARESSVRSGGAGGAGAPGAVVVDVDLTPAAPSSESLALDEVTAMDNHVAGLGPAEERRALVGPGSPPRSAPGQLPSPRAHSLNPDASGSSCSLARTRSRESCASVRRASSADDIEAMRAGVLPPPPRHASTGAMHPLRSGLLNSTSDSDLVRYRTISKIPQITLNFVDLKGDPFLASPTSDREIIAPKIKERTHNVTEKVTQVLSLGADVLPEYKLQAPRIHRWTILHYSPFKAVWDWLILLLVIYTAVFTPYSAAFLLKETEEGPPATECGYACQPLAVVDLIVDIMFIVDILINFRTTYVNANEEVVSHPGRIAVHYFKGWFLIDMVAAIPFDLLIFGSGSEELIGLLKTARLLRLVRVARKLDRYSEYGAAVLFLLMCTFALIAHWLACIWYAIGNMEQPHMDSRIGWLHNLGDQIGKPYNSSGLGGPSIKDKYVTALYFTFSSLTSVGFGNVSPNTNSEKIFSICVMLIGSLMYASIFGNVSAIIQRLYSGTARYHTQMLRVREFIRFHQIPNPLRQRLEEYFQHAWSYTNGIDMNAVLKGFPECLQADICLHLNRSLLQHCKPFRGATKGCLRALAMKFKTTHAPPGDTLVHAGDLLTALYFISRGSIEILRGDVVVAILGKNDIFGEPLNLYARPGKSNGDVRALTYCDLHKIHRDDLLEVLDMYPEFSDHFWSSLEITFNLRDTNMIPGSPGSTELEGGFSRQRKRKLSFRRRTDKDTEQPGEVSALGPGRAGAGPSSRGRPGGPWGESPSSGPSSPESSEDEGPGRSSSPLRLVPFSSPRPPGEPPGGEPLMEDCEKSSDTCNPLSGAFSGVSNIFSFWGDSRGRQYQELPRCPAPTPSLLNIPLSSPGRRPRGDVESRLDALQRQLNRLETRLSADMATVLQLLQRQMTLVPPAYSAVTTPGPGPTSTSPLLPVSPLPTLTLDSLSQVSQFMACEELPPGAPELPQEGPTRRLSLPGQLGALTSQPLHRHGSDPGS

SMILES: CN1C2CCC1CC(c1ccc3nc(Nc4ccc(C(F)(F)F)cn4)[nH]c3c1)C2 (centres undefined)
selectivity ratio (in vitro [1]): 308
IC50 (Plasmodium falciparum [2]): 94 nM
IC50 (Plasmodium falciparum [3]): 200 nM

SMILES: CCc1nc(N)nc(N)c1-c1ccc(Cl)cc1 [PYRIMETHAMINE]
IC50 (Plasmodium falciparum [4]): 10.9 nM

SMILES: Brc1ccc(Nc2nc3ccc(N4CCOCC4)cc3[nH]2)nc1
selectivity ratio (in vitro [1]): > 100
IC50 (Plasmodium falciparum [2]): > 500 nM
IC50 (Plasmodium falciparum [3]): > 500 nM

SMILES: CN1CCN(C(=O)c2ccc3nc(Nc4ccc(Br)cn4)[nH]c3c2)CC1
selectivity ratio (in vitro [1]): 548
IC50 (Plasmodium falciparum [2]): 450 nM
IC50 (Plasmodium falciparum [3]): > 500 nM

SMILES: CN1CCC(c2ccc3nc(Nc4ccc(C(F)(F)F)cn4)[nH]c3c2)CC1
logD (physchem [5]): 3
solubility (physchem [6]): 121 µM (≈ 45.4 µg/mL)
Cmax (in vivo [7]): 5.2 µM
fraction unbound (in vitro [8]): 0.134
inhibition in vivo at 50 mg/kg (Plasmodium berghei [9]): 99.8%
microsomal CLint (in vitro [10]): < 4 µL/min/mg
half-life (in vivo [11]): 9.3 h
AUC(0-t) (in vivo [12]): 54 µM·h
half-life (in vivo [13]): 19.2 h
half-life (in vivo [14]): 14.9 h
Cmax (in vivo [15]): 8.8 µM
AUC(0-t) (in vivo [16]): 131 µM·h
Cmax (in vivo [17]): 0.5 µM
half-life (in vivo [18]): 18.5 h
IC50 (Plasmodium falciparum [2]): 36 nM
inhibition in vivo at 30 mg/kg (Plasmodium berghei [19]): 98.9%
clearance (in vivo [20]): 14.9 mL/min/kg
MSD (Plasmodium berghei [21]): 25 days
IC50 (Plasmodium falciparum [3]): 59 nM
bioavailability (in vivo [22]): 79%
AUC (in vivo [23]): 6 µM·h
MSD (Plasmodium berghei [24]): 30 days
Vd (in vivo [25]): 16.9 L/kg
hepatocyte CLint (in vitro [26]): 4.7 µL/min/1e6 cells

SMILES: Cc1nc(Nc2nc3ccc(N4CCN(C)CC4)cc3[nH]2)ccc1F
selectivity ratio (in vitro [1]): > 1050
IC50 (Plasmodium falciparum [2]): 48 nM
IC50 (Plasmodium falciparum [27]): 98.8 nM
IC50 (Plasmodium falciparum [28]): 106 nM
IC50 (Plasmodium falciparum [3]): 110 nM

SMILES: O=C1C(O)=C([C@H]2CC[C@H](c3ccc(Cl)cc3)CC2)C(=O)c2ccccc21 [ATOVAQUONE]
IC50 (Plasmodium falciparum [4]): > 2000 nM
IC50 (Plasmodium falciparum [27]): 2.3 nM
IC50 (Plasmodium falciparum [29]): 2 nM
IC50 (Plasmodium falciparum [3]): 2.3 nM

SMILES: CN1CCN(c2ccc3nc(Nc4ccc(Br)cc4)[nH]c3c2)CC1
selectivity ratio (in vitro [1]): > 1190
IC50 (Plasmodium falciparum [2]): 210 nM
IC50 (Plasmodium falciparum [3]): 390 nM

SMILES: CN1CCN(c2ccc3nc(Nc4ccc(C(F)(F)F)cn4)[nH]c3c2)CC1
Cmax (in vivo [7]): 3.3 µM
inhibition in vivo at 50 mg/kg (Plasmodium berghei [9]): 99.9%
AUC(0-t) [30]: 41.6 µM·h
half-life (in vivo [11]): 3.7 h
AUC(0-t) (in vivo [12]): 19.2 µM·h
Cmax (in vivo [15]): 5 µM
AUC(0-t) (in vivo [16]): 33.7 µM·h
half-life (in vivo [18]): 5.4 h
selectivity ratio (in vitro [1]): 890
IC50 (Plasmodium falciparum [2]): 82 nM
Cmax [31]: 6.1 µM
inhibition in vivo at 30 mg/kg (Plasmodium berghei [19]): 81.3%
inhibition in vivo at 100 mg/kg (Plasmodium berghei [32]): 99.9%
half-life [33]: 4.9 h
MSD (Plasmodium berghei [21]): 10 days
IC50 (Plasmodium falciparum [3]): 120 nM
MSD (Plasmodium berghei [34]): 24 days
MSD (Plasmodium berghei [24]): 15 days

SMILES: Cc1ccc(Nc2nc3ccc(N4CCN(C)CC4)cc3[nH]2)nc1
logD (physchem [5]): 2.2
solubility (physchem [6]): 1170 µM (≈ 377 µg/mL)
fraction unbound (in vitro [8]): 0.183
microsomal CLint (in vitro [10]): 4.8 µL/min/mg
selectivity ratio (in vitro [1]): > 385
IC50 (Plasmodium falciparum [4]): 86.2 nM
IC50 (Plasmodium falciparum [2]): 130 nM
IC50 (Plasmodium falciparum [27]): 307 nM
IC50 [35]: 12700 nM
IC50 (Plasmodium falciparum [28]): 437 nM
IC50 (Plasmodium falciparum [29]): 201 nM
IC50 (Plasmodium falciparum [3]): 270 nM
hepatocyte CLint (in vitro [26]): 19.5 µL/min/1e6 cells

SMILES: Brc1ccc(Nc2nc3ccc(N4CCNCC4)cc3[nH]2)nc1
inhibition in vivo at 50 mg/kg (Plasmodium berghei [9]): 99.9%
Cmax (in vivo [15]): 25.5 µM
AUC(0-t) (in vivo [16]): 202 µM·h
half-life (in vivo [18]): 4.5 h
selectivity ratio (in vitro [1]): 961
IC50 (Plasmodium falciparum [2]): 39 nM
IC50 (Plasmodium falciparum [3]): 278 nM
MSD (Plasmodium berghei [24]): 11 days

SMILES: CN1CCN(c2nc3[nH]c(Nc4ccc(Br)cn4)nc3cc2F)CC1
selectivity ratio (in vitro [1]): > 100
IC50 (Plasmodium falciparum [2]): > 500 nM
IC50 (Plasmodium falciparum [3]): > 500 nM

SMILES: CN1CCN(c2ccc3nc(Nc4ccccn4)[nH]c3c2)CC1
selectivity ratio (in vitro [1]): > 86
IC50 (Plasmodium falciparum [2]): > 500 nM
IC50 (Plasmodium falciparum [3]): > 500 nM

SMILES: CN1CCC(c2ccc3nc(Nc4ncc(C(F)(F)F)cc4Cl)[nH]c3c2)CC1
IC50 (Plasmodium falciparum [2]): 80 nM
IC50 (Plasmodium falciparum [3]): 130 nM

SMILES: C[C@@H]1CC[C@H]2[C@@H](C)C(=O)O[C@@H]3O[C@@]4(C)CC[C@@H]1[C@]32OO4 [ARTEMISININ]
IC50 (Plasmodium falciparum [4]): 16.6 nM
IC50 (Plasmodium falciparum [2]): 7.1 nM
IC50 (Plasmodium falciparum [27]): 1.3 nM
IC50 (Plasmodium falciparum [28]): 6.5 nM
IC50 (Plasmodium falciparum [29]): 10.3 nM

SMILES: Cc1nc(Nc2nc3ccc(C4CCN(C)CC4)cc3[nH]2)cc(C2CC2)c1F
selectivity ratio (in vitro [1]): 692
IC50 (Plasmodium falciparum [2]): 13 nM
IC50 (Plasmodium falciparum [3]): 30 nM

SMILES: CN1CCN(c2cc(Cl)c3nc(Nc4ccc(Br)cn4)[nH]c3c2)CC1
logD (physchem [5]): 3
solubility (physchem [6]): > 1000 µM
fraction unbound (in vitro [8]): 0.301
microsomal CLint (in vitro [10]): < 4 µL/min/mg
IC50 (Plasmodium falciparum [2]): 110 nM
IC50 (Plasmodium falciparum [3]): 160 nM
hepatocyte CLint (in vitro [26]): 9 µL/min/1e6 cells

More lines, main results first:

IC50 (Plasmodium falciparum [2]): 130 nM
IC50 (Plasmodium falciparum [3]): 210 nM
SMILES: OCCN1CCN(c2ccc3nc(Nc4ccc(C(F)(F)F)cn4)[nH]c3c2)CC1
selectivity ratio (in vitro [1]): > 1110

IC50 (Plasmodium falciparum [2]): 56 nM
IC50 (Plasmodium falciparum [3]): 119 nM
SMILES: FC(F)(F)c1ccc(Nc2nc3ccc(N4CCN5CCCC5C4)cc3[nH]2)nc1 (centres undefined)
selectivity ratio (in vitro [1]): 357

IC50 (Plasmodium falciparum [2]): > 500 nM
IC50 (Plasmodium falciparum [3]): > 500 nM
SMILES: CN1CCN(c2ccc3nc(Nc4ccc(C(F)(F)F)nc4)[nH]c3c2)CC1
selectivity ratio (in vitro [1]): > 500

logD (physchem [5]): 3.2
solubility (physchem [6]): > 1000 µM
fraction unbound (in vitro [8]): 0.275
microsomal CLint (in vitro [10]): < 4 µL/min/mg
IC50 (Plasmodium falciparum [2]): 93 nM
IC50 (Plasmodium falciparum [3]): 166 nM
hepatocyte CLint (in vitro [26]): 7.5 µL/min/1e6 cells
SMILES: CN1CCN(Cc2ccc3nc(Nc4ccc(C(F)(F)F)cn4)[nH]c3c2)CC1

logD (physchem [5]): 3.9
solubility (physchem [6]): 5.6 µM (≈ 2.14 µg/mL)
fraction unbound (in vitro [8]): 0.051
microsomal CLint (in vitro [10]): 21.8 µL/min/mg
IC50 (Plasmodium falciparum [2]): 17 nM
IC50 (Plasmodium falciparum [3]): 26 nM
hepatocyte CLint (in vitro [26]): 11.3 µL/min/1e6 cells
SMILES: Cc1nc(Nc2nc3cnc(N4CCN(C)CC4)cc3[nH]2)cc(C2CC2)c1F

IC50 (Plasmodium falciparum [2]): 29 nM
IC50 (Plasmodium falciparum [3]): 54 nM
SMILES: CN1CCN(c2cc3[nH]c(Nc4ccc(C(F)(F)F)cn4)nc3cn2)CC1
selectivity ratio (in vitro [1]): 1030

IC50 (Plasmodium falciparum [2]): 44 nM
IC50 (Plasmodium falciparum [3]): 110 nM
SMILES: Cc1nc(Nc2nc3cnc(N4CCN(C)CC4)cc3[nH]2)ccc1Cl
selectivity ratio (in vitro [1]): 500

IC50 (Plasmodium falciparum [2]): 53 nM
IC50 (Plasmodium falciparum [3]): 85 nM
SMILES: CN1CCC(c2ccc3nc(Nc4ccc(C(F)(F)F)cn4)[nH]c3c2)C1 (centres undefined)
